In US20260325504A1, “Genetically Engineered Human Pituitary Corticotroph Tumor Organoids Exhibit Divergent Responses to Selective Glucocorticoid Receptor Modulators” (Corcept Therapeutics Incorporated, priority 2022, published 2026):
Entries after “also recorded” stand apart in the source; their conditions may differ.

Experiments:
[1] = system: FKBP5; test: FKBP5 expression (GR target gene, qRT-PCR) in PitNET organoids; assay type: cell-based, human; details: PitNET organoids (iPSCctrl, iPSCUSP48MV, iPSCUSP8), 48 h, FIG. 16A-C
Protocol: (§1) Sonic Hedgehog (SHH) was withdrawn from the organoid growth media 16 hours prior to treatment. The experimental treatment groups included: vehicle (Veh), mifepristone (500 nM, Selleckchem S2606), GANT61 (5 μM, Stemcell Technologies 73692), ketoconazole (Keto, 10 μM, Selleckchem S1353), pasireotide (Pas, 100 nM, Target Mol TP2207-SB001), octreotide (Oct, 100 nM, Selleckchem P1017), mifepristone plus GANT61, mifepristone plus Keto, mifepristone plus Pas, relacorilant (500 nM, Corcept Therapeutics CORT125134), relacorilant plus Pas, relacorilant plus Oct, or dexamethasone (Dexa, 100 nM, SIGMA S4902). In the combination treatments, cultures were pretreated with the GANT61, Keto, Pas or Oct for 2 hours prior to treatment with mifepristone or Rela. PitNET tissue derived organoids hPITO36, hPITO37, hPITO38, hPITO39, and hPITO40 were treated with the following experimental conditions: Vehicle (1), pasireotide (2), relacorilant (3), relacorilant & pasireotide (4), mifepristone (5), mifepristone & pasireotide (6). The IC50 values used for each hPITO line for each drug were determined based on dose responses (FIG. 12). All organoid cultures were treated for 48 hours prior to analysis.
RNA was extracted from PitNET tissue or iPSC generated organoids using TRI Reagent® (Molecular Research Center Inc TR118) and the High Capacity cDNA Reverse Transcription Kit (Applied Biosystems, Foster City, CA) was used for cDNA synthesis of RNA following the recommended protocol. For each sample, 60 ng RNA was reverse transcribed to yield approximately […] total cDNA that was then used for the qRT-PCR. Pre-designed real-time polymerase chain reaction assays were purchased for the following genes: TPit (Thermo Fisher Scientific 4331182 Hs00193027), SF1 (Thermo Fisher Scientific 4331182 Hs00610436), SSTR2 (Thermo Fisher Scientific 4331182 Hs00265624_s1), SSTR5 (Thermo Fisher Scientific 4331182 Hs00990407_s1), POMC (Thermo Fisher Scientific 4331182 Hs01596743_ml), hPRT (Thermo Fisher Scientific 4331182 Hs02800695_ml), and FKBP5 (Thermo Fisher Scientific 4331182 Hs01561006_m1). Polymerase chain reaction amplifications were performed in a total volume of 20 μL containing 20× TaqMan Expression Assay primers, 2× TaqMan Universal Master Mix (Applied Biosystems, TaqMan® Gene Expression Systems), and cDNA template. Each polymerase chain reaction amplification was performed in triplicate wells in a StepOne Real-Time PCR System (Applied Biosystems) by using the following conditions: 500C 2 minutes, 95° C. […] Fold change was calculated as the following: (Ct-Ct high)=n target, 2ntarget/2nHPRT=fold change where Ct=threshold cycle. The results were expressed as average fold change in or differential gene expression relative to control, with HPRT used as an internal control according to Livak and Schmittgen.

[2] = system: SSTR5; test: Differential expression of SSTR5 (qRT-PCR) in iPSC generated pituitary organoids; assay type: cell-based, human; details: for differential expression of SSTR5: iPSCctrl organoids, compound alone, 48 h, FIG. 5C, D; for effect on mifepristone-induced SSTR5 expression / effect on relacorilant-induced SSTR5 expression: iPSC organoids; for effect on mifepristone-induced SSTR5 expression: pretreatment 2 h before mifepristone (500 nM); for effect on relacorilant-induced SSTR5 expression: pretreatment 2 h before relacorilant (500 nM)
Protocol: as §1
(§2) RNA was extracted from PitNET tissue or iPSC generated organoids using TRI Reagent® (Molecular Research Center Inc TR118) and the High Capacity cDNA Reverse Transcription Kit (Applied Biosystems, Foster City, CA) was used for cDNA synthesis of RNA following the recommended protocol. For each sample, 60 ng RNA was reverse transcribed to yield approximately […] total cDNA that was then used for the qRT-PCR. Pre-designed real-time polymerase chain reaction assays were purchased for the following genes: TPit (Thermo Fisher Scientific 4331182 Hs00193027), SF1 (Thermo Fisher Scientific 4331182 Hs00610436), SSTR2 (Thermo Fisher Scientific 4331182 Hs00265624_s1), SSTR5 (Thermo Fisher Scientific 4331182 Hs00990407_s1), POMC (Thermo Fisher Scientific 4331182 Hs01596743_ml), hPRT (Thermo Fisher Scientific 4331182 Hs02800695_ml), and FKBP5 (Thermo Fisher Scientific 4331182 Hs01561006_m1). Polymerase chain reaction amplifications were performed in a total volume of 20 μL containing 20× TaqMan Expression Assay primers, 2× TaqMan Universal Master Mix (Applied Biosystems, TaqMan® Gene Expression Systems), and cDNA template. Each polymerase chain reaction amplification was performed in triplicate wells in a StepOne Real-Time PCR System (Applied Biosystems) by using the following conditions: 500C 2 minutes, 95° C. 10 minutes, 95° C. 15 seconds (denature) and 60° C. 1 minute (anneal/extend) for 40 cycles. Fold change was calculated as the following: (Ct-Ct high)=n target, 2ntarget/2nHPRT=fold change where Ct=threshold cycle. The results were expressed as average fold change in or differential gene expression relative to control, with HPRT used as an internal control according to Livak and Schmittgen.

[3] = system: SSTR2; test: Differential expression of SSTR2 (qRT-PCR) in iPSC generated pituitary organoids; assay type: cell-based, human; details: for differential expression of SSTR2: iPSCctrl organoids, compound alone, 48 h, FIG. 5C, D; for effect on mifepristone-induced SSTR2 expression / effect on relacorilant-induced SSTR2 expression: iPSC organoids; for effect on mifepristone-induced SSTR2 expression: pretreatment 2 h before mifepristone (500 nM); for effect on relacorilant-induced SSTR2 expression: pretreatment 2 h before relacorilant (500 nM)
Protocol: as §1, §2

[4] = system: Hedgehog pathway; details: by blocking activation of SMO or GLI1/GLI2; cited from earlier work
[5] = system: iPSC^ctrl organoids; test: ACTH secretion ELISA, iPSCctrl organoids; assay type: cell-based, human; details: 100 nM pretreatment 2 h before mifepristone, FIG. 6G
Protocol: as §1
(§3) Organoid conditioned media was collected and ACTH secretion using an ELISA according to the manufacturer's protocol (Novus Biologicals Human ACTH ELISA Kit NBP2-66401). The optical density was measured at a wavelength of 450 nm, and ACTH concentration (pg/mL) was interpolated using a standard curve with a 4-parameter logistic regression analysis using GraphPad Prism (v9.3.1).

[6] = system: iPSC^ctrl organoids; test: EdU uptake (proliferation) in iPSCctrl organoids; assay type: cell-based, human; details: 100 nM pretreatment 2 h before mifepristone
Protocol: (§4) iPSCs were stained for pituitary specific hormones including luteinizing hormone (LH), follicle-stimulating hormone (FSH), growth hormone (GH), prolactin (PRL), ACTH, cytokeratin 8/18 (CAM5.2), pituitary transcription factor PIT-1 and neuroendocrine marker Synaptophysin (Table 5). Cultures were immunostained for proliferation marker EdU (Click-IT EdU Alexa Fluor 555 Imaging Kit, Thermo Fisher Scientific C10338). Antibody dilutions were determined based on manufacturer guidelines and antibody titration (Table 5). Staining was conducted according to previously published protocols. Briefly, organoids and iPSCs grown in 8-well glass bottom chamber slides were fixed using 3.7% formaldehyde, washed with DPBS, permeabilized with 0.5% Triton X-100 (SIGMA X-100, PBS-T, 20 min at room temperature), washed with 0.01% PBS-T, and blocked with 2% donkey serum (Jackson Immuno Research 017-000-121) for 1 hour at room temperature. After blocking, primary antibodies were added and incubated overnight at 4° C. Slides were washed with 0.01% PBS-T and incubated with secondary antibodies (Table 5) with Hoechst (Thermo Fisher Scientific H1399) for 1 hour at room temperature. Organoids were washed and stored in PBS at 4° C. until microscopic analysis. High content confocal microscopy was performed using the Nikon Ti2-E Inverted Microscope (with a Crest X-Light V2 L-FOV Spinning Disk Confocal) at the University of Arizona Cancer Center, or a ZEISS LSM880 34 channel Laser Scanning Confocal Microscope at University of Arizona Marley Imaging Core. Fluorescence intensity was quantified as the percentage of marker-positive cells versus total cells, using Nikon Elements Software (Version 5.21.05). Proliferation for each iPSC line was quantified as the percentage of EdU-positive cells versus total cells.
as §1, with “PitNET tissue derived organoids hPITO36, hPITO37, hPITO38, hPITO39, and hPITO40 were treated with the following experimental conditions: Vehicle (1), pasireotide (2), relacorilant (3), relacorilant & pasireotide (4), mifepristone (5), mifepristone & pasireotide (6).” left out, “All organoid cultures were treated for 48 hours prior to analysis.” left out

[7] = system: iPSC^USP48MV organoids; test: ACTH secretion ELISA, iPSCUSP48 organoids; assay type: cell-based, human; details: iPSCUSP48, 100 nM pretreatment 2 h before mifepristone, FIG. 7G
Protocol: as §1, §3

[8] = system: SSTR2; details: cited from earlier work
[9] = system: iPSC^USP48MV organoids; test: EdU uptake (proliferation) in iPSCUSP48MV organoids; assay type: cell-based, human; details: 100 nM pretreatment 2 h before mifepristone
Protocol: as §4
as §1, with “PitNET tissue derived organoids hPITO36, hPITO37, hPITO38, hPITO39, and hPITO40 were treated with the following experimental conditions: Vehicle (1), pasireotide (2), relacorilant (3), relacorilant & pasireotide (4), mifepristone (5), mifepristone & pasireotide (6).” left out, “All organoid cultures were treated for 48 hours prior to analysis.” left out

Compound	differential expression of SSTR5 [2]	differential expression of SSTR2 [3]	effect on mifepristone-induced SSTR5 expression [2]	effect on relacorilant-induced SSTR5 expression [2]	effect on mifepristone-induced SSTR2 expression [3]	effect on relacorilant-induced SSTR2 expression [3]	cell proliferation [4]	cell viability [4]	binding to / activation of SSTR2 [8]	also measured
C[C@@H]1C[C@H]2[C@@H]3CCC4=CC(=O)C=C[C@]4(C)[C@@]3(F)[C@@H](O)C[C@]2(C)[C@@]1(O)C(=O)CO [dexamethasone]	significantly decreased expression	significantly decreased expression								differential expression of FKBP5 [1]: significant induction in gene expression
CN(C)c1ccccc1CN1CCCN(Cc2ccccc2N(C)C)C1c1ccncc1 [GANT61]	no effect	no effect	blocks SSTR2 and SSTR5 expression; also recorded: reduced; also recorded: inhibited	reduced the induction of SSTR5 expression; also recorded: blocks SSTR2 and SSTR5 expression; also recorded: inhibited	reduced the induction of SSTR2 expression; also recorded: blocks SSTR2 and SSTR5 expression; also recorded: inhibited	blocks SSTR2 and SSTR5 expression; also recorded: inhibited	reduce cell proliferation and cell viability	reduce cell proliferation and cell viability		
CC(=O)N1CCN(c2ccc(OCC3COC(Cn4ccnc4)(c4ccc(Cl)cc4Cl)O3)cc2)CC1 (stereo not shown) [ketoconazole]	no effect	no effect	no effect; also recorded: failed to block the induction	no effect; also recorded: failed to block the induction	no effect; also recorded: failed to block the induction	failed to block the induction	reduce cell proliferation and cell viability	reduce cell proliferation and cell viability		effect on mifepristone-induced SSTR5 expression ([2]; listed as ketoconozaole): no effect; effect on relacorilant-induced SSTR5 expression ([2]; listed as ketoconozaole): no effect; effect on mifepristone-induced SSTR2 expression ([3]; listed as ketoconozaole): no effect; effect on relacorilant-induced SSTR2 expression ([3]; listed as ketoconozaole): no effect
C[C@@H](O)[C@@H]1NC(=O)[C@H](CCCCN)NC(=O)[C@@H](Cc2c[nH]c3ccccc23)NC(=O)[C@H](Cc2ccccc2)NC(=O)[C@@H](NC(=O)[C@H](N)Cc2ccccc2)CSSC[C@@H](C(=O)N[C@H](CO)[C@@H](C)O)NC1=O [octreotide]									preferentially binds or activates somatostatin receptor type 2 (SSTR2)	effect on ACTH secretion in response to mifepristone [5]: inhibition by octreotide was greater that pasireotide; effect on ACTH secretion in response to mifepristone ([5]; listed as Oct): significantly reduced ACTH secretion; effect on proliferative response to mifepristone (EdU uptake) [6]: inhibited; effect on ACTH secretion in response to mifepristone [7]: inhibition by octreotide was greater that pasireotide; effect on ACTH secretion in response to mifepristone ([7]; listed as Oct): significantly reduced ACTH secretion; effect on proliferative response to mifepristone (EdU uptake) [9]: inhibited
CC(C)[C@@H]1NC(=O)[C@H](CCCCN)NC(=O)[C@@H](Cc2c[nH]c3ccccc23)NC(=O)[C@H](Cc2ccc(O)cc2)NC(=O)[C@@H](NC(=O)[C@H](N)Cc2ccc3ccccc3c2)CSSC[C@@H](C(=O)N[C@H](C(N)=O)[C@@H](C)O)NC1=O [lanreotide]									preferentially binds or activates somatostatin receptor type 2 (SSTR2)	
